The text below walks through data of US8182837B2, “Methods and compositions for reducing the risk associated with the administration of opioid analgesics in patients with diagnosed or undiagnosed respiratory illness” (QRxPharma Limited, priority 2003, dated 2012).

Like-named read-outs stand apart in the source and are kept apart here.

The conditions of assay [1]: P=0.033; of borderline clinical significance.
For assay [2] the following is noted: cited from earlier work; for lower threshold for an initial dosage resulting in production of analgesia: naive human adult.

For the compound `CN1CC[C@]23c4c5ccc(O)c4O[C@H]2[C@@H](O)C=C[C@H]3[C@H]1C5` [Morphine, morphine], the “difference mean, pre-treatment VAS greater than steady-state VAS” value in assay [1] was 1.2 cm. For the same compound, the results for the “lower threshold for an initial dosage resulting in production of analgesia” value in assay [2] (intravenous route) and in assay [2] (oral route) were 4-5 mg every four hours and 30 mg every four hours, respectively.

As to `COc1ccc2c3c1O[C@H]1C(=O)CC[C@@]4(O)[C@@H](C2)N(C)CC[C@]314` [oxycodone], in assay [2] (in vivo), the “analgesic potency relative to morphine (as a function of mass of dose)” value is recorded as “about 1.5 times”. In addition, the “lower threshold for an initial dosage resulting in production of analgesia” value in assay [2] (oral route) is reported as 10 mg every four hours.
